{"source": "patent US20230167121A1", "about": "“SUBSTITUTED {1,2,4,} TRIAZOLO{1,5-A} PYRIMIDINE COMPOUNDS AND USE IN STABILIZING MICROTUBULES” (THE TRUSTEES OF THE UNIVERSITY OF PENNSYLVANIA, priority 2020, published 2023)", "key": {"B/P of Table 4": {"experiment": "B/P of Table 4", "conditions": "in vivo"}, "total α-tubulin": {"system": "total α-tubulin", "experiment": "cell-based assay of MT-stabilization: total α-tubulin in QBI293 cell lysates by ELISA", "conditions": "QB1293 cells", "experimental": "(§1) All test compounds were evaluated in a previously described cell-based assay of MT-stabilization (see Kovalevich, J., et al. (2016) Characterization of Brain-Penetrant Pyrimidine-Containing Molecules with Differential Microtubule-Stabilizing Activities Developed as Potential Therapeutic Agents for Alzheimer's Disease and Related Tauopathies. J Pharmacol Exp Ther 357, 432-450, incorporated herein by reference), in which compound-dependent changes in tubulin polymerization and total tubulin levels were determined after 4 h of incubation of QBI293 cells with 1 and 10 μM compound via quantification of acetylated α-tubulin and total tubulin in cell lysates by ELISA.\n(§2) Novel C6 nitrile- and alkyne-substituted triazolopyrimidine examples that have improved in vitro activity relative to previously described examples, with the general structure depicted in Formula I. The activity of the novel C6-nitrile substituted compounds were tested in a previously described cellular assay of MT-stabilization (Kovalevich, J., et al. (2016)). As summarized in Table 2. below, eighteen examples were synthesized and tested. In all cases, these compounds were confirmed to be active Class I triazolopyrimidines. […] Table 2 provides fold-changes in acetylated α-tubulin and total α-tubulin levels in QB1293 cells after 4 h incubation with test compounds at either 1 or 10 μM. Data are expressed as the fold-change relative to vehicle-treated cells. *p<0.05 and **p<0.01 by one-way ANOVA.\n(§3) Compounds produced according to the preceding synthetic schemes were for microtubule stabilization. Fold-changes in acetylated α-tubulin (AcTub) and α-tubulin (α-Tub) levels in QB1293 cells after 4 h incubation with test compounds at either 1 or 10 μM. Reported values for AcTub and α-Tub represent the fold-change over control (DMSO)-treated cells (*p<0.05 and **p<0.01 by one-way ANOVA); numbers in parentheses represent the fold-change of AcTub over positive control-treated cells (i.e., 100 nM of cevipabulin). Changes of +/−15% of control are deemed to be within the day-to-day assay variability and non-significant."}, "acetylated α-tubulin": {"system": "acetylated α-tubulin", "experiment": "cell-based assay of MT-stabilization: acetylated α-tubulin in QBI293 cell lysates by ELISA", "conditions": "QB1293 cells, *p<0.05, **p<0.01; for fold induction at 1 µM: QBI293", "experimental": "as §1, §2, §3"}, "MTs [1]": {"system": "MTs", "conditions": "cited from earlier work"}, "MTs [2]": {"system": "MTs", "conditions": "versus vincristine, taxol, colchicine; cited from earlier work"}, "[3]": {"experiment": "Plasma and brain compound determinations (LC-MS/MS)", "assay_type": "in vivo", "conditions": "CD1 mice, 2.5 mg/kg each, one hour after dosing; for concentration at 1 h / Kp at 1 h: CD1, mouse, 2.5 mg/kg", "experimental": "CD1 mice (n=3) were dosed concurrently with CNDR-51990 and CNDR-51993 (representing a 1:1 mixture of two diastereoisomers, 52017 (67) and 52016 (68)) at 2.5 mg/kg each). One hour after dosing, mice were euthanized and blood collected, followed by perfusion with saline. Mouse brains were homogenized in 10 mM ammonium acetate, pH 5.7 (1:2; w/v) using a handheld sonic homogenizer. Mouse plasma was obtained from blood that was collected into a 1.5 ml tube containing 0.5M EDTA solution and which was centrifuged for 10 minutes at 4500 g at 4° C. Aliquots (50 μl) of brain homogenates or plasma were mixed with 0.2 ml of acetonitrile, centrifuged at 15,000×g, and the resulting supernatant was used for subsequent LC-MS/MS analysis. The LC-MS/MS analysis was conducted by Inotiv, Inc., utilizing methods essentially as previously described (Lou et al., J. Med. Chem. 57:6116-27, 2014)."}, "[4]": {"conditions": "QBI293, 4 h, Table 4, 4 h, 1 μM, read-out: α-Tub l μM (fold-change over control (DMSO)-treated cells)"}, "[5]": {"conditions": "QBI293, 4 h, Table 4, 4 h, 10 μM, read-out: α-Tub 10 μM (fold-change over control (DMSO)-treated cells)"}, "[6]": {"conditions": "QBI293, 4 h, 4 h incubation, 1 μM compound, relative to vehicle-treated cells, read-out: α-Tub 1 μM (fold-change in total α-tubulin)"}, "[7]": {"conditions": "QBI293, 4 h, 4 h incubation, 10 μM compound, relative to vehicle-treated cells, read-out: α-Tub 10 μM (fold-change in total α-tubulin)"}, "[8]": {"conditions": "Table 4, 4 h, 1 μM, read-out: AcTub 1 μM (fold-change over control (DMSO)-treated cells)"}, "[9]": {"conditions": "dosed concurrently, individual animals 1-3, listed as 51990 (70)"}, "[10]": {"conditions": "4 h incubation, 1 μM compound, relative to vehicle-treated cells, read-out: AcTub l μM (fold-change in acetylated α-tubulin)"}}, "note": "Several values for one entry are separate records, joined by “and”; a condition that tells them apart may be missing. Equal entries are not always repeated. Structures can show the parent of a compound that is named as a salt. Where two headings read alike, the source gives them in different places."}
{"smiles": "[2H]C([2H])(O)CC#Cc1cc(F)c(-c2c(Cl)nc3ncnn3c2N[C@H](C)C(C)(C)C)c(F)c1", "note": "[TAL-651, (R)-4-(4-(5-chloro-7-((3,3-dimethylbutan-2-yl)amino)-[1,2,4]triazolo[1,5-a]pyrimidin-6-yl)-3,5-difluorophenyl)but-3-yn-1,1-d2-1-ol]", "values": [{"measurement": "Kp", "setting": "B/P of Table 4", "value": 0.46}, {"measurement": "fold induction at 1 µM", "setting": "total α-tubulin; [4]", "value": 1.02}, {"measurement": "fold induction at 10 µM", "setting": "total α-tubulin; [5]", "value": 1.01}]}
{"smiles": "CC(C)[C@@H](C)Nc1c(-c2c(F)cc(C#CCCO)cc2F)c(Cl)nc2ncnn12", "note": "[TAL-598, (R)-4-(4-(5-chloro-7-((3-methylbutan-2-yl)amino)-[1,2,4]triazolo[1,5-a]pyrimidin-6-yl)-3,5-difluorophenyl)but-3-yn-1-ol]", "values": [{"measurement": "Kp", "setting": "B/P of Table 4", "value": 0.44}, {"measurement": "fold induction at 1 µM", "setting": "total α-tubulin; [4]", "value": 0.92}]}
{"smiles": "C[C@@H](Nc1c(-c2c(F)cc(C#CCCN)cc2F)c(Cl)nc2ncnn12)C(C)(C)C", "note": "[TAL-580, (R)-6-(4-(4-aminobut-1-yn-1-yl)-2,6-difluorophenyl)-5-chloro-N-(3,3-dimethylbutan-2-yl)-[1,2,4]triazolo[1,5-a]pyrimidin-7-amine hydrochloride]", "values": [{"measurement": "Kp", "setting": "B/P of Table 4", "value": 1.04}, {"measurement": "fold induction at 1 µM", "setting": "total α-tubulin; [4]", "value": 0.96}, {"measurement": "fold induction at 10 µM", "setting": "total α-tubulin; [5]", "value": 0.91}]}
{"smiles": "CC(C)[C@@H](C)Nc1c(-c2ccc(C#N)cc2F)c(Cl)nc2ncnn12", "note": "[Compound 67, (R)-4-(5-chloro-7-((3-methylbutan-2-yl)amino)-[1,2,4]triazolo[1,5-a]pyrimidin-6-yl)-3-fluorobenzonitrile]", "values": [{"measurement": "AcTub l μM (fold-change in acetylated α-tubulin)", "setting": "acetylated α-tubulin; 4 h incubation, 1 μM compound, relative to vehicle-treated cells, listed as 52017 (67)", "value": "2.79 +/− 1.11 fold-change"}, {"measurement": "fold induction at 1 µM", "setting": "total α-tubulin; [6]", "value": 0.99}, {"measurement": "fold induction at 10 µM", "setting": "total α-tubulin; [7]", "value": 0.93}]}
{"smiles": "Cc1nc2nc(Cl)c(-c3c(F)cc(C#CCCO)cc3F)c(N(C)[C@H](C)C(C)C)n2n1", "note": "[TAL-665, (R)-4-(4-(5-chloro-2-methyl-7-(methyl(3-methylbutan-2-yl)amino)-[1,2,4]triazolo[1,5-a]pyrimidin-6-yl)-3,5-difluorophenyl)but-3-yn-1-ol]", "values": [{"measurement": "fold induction at 1 µM", "setting": "acetylated α-tubulin; [8]", "value": 1.05}, {"measurement": "fold induction at 1 µM", "setting": "total α-tubulin; [4]", "value": 0.91}, {"measurement": "fold induction at 10 µM", "setting": "total α-tubulin; [5]", "value": 0.96}]}
{"smiles": "C[C@@H](Nc1c(-c2c(F)cc(C#CCCO)cc2F)c(Cl)nc2ncnn12)C(C)(C)C", "note": "[TAL-600, (R)-4-(4-(5-chloro-7-((3,3-dimethylbutan-2-yl)amino)-[1,2,4]triazolo[1,5-a]pyrimidin-6-yl)-3,5-difluorophenyl)but-3-yn-1-ol]", "values": [{"measurement": "Kp", "setting": "B/P of Table 4", "value": 0.47}, {"measurement": "fold induction at 1 µM", "setting": "total α-tubulin; [4]", "value": 0.98}, {"measurement": "fold induction at 10 µM", "setting": "total α-tubulin; [5]", "value": 0.98}]}
{"smiles": "C[C@@H](Nc1c(-c2c(F)cc(C#CCN(C)C)cc2F)c(Cl)nc2ncnn12)C(C)(C)C", "note": "[TAL-555, (R)-5-chloro-6-(4-(3-(dimethylamino)prop-1-yn-1-yl)-2,6-difluorophenyl)-N-(3,3-dimethylbutan-2-yl)-[1,2,4]triazolo[1,5-a]pyrimidin-7-amine]", "values": [{"measurement": "fold induction at 1 µM", "setting": "acetylated α-tubulin; [8]", "value": 1.36}, {"measurement": "fold induction at 1 µM", "setting": "total α-tubulin; QBI293, Table 4, 4 h, 1 μM, read-out: α-Tub l μM (fold-change over control (DMSO)-treated cells)", "value": 1}, {"measurement": "fold induction at 10 µM", "setting": "total α-tubulin; QBI293, Table 4, 4 h, 10 μM, read-out: α-Tub 10 μM (fold-change over control (DMSO)-treated cells)", "value": 0.84}]}
{"smiles": "CO[C@H]1C[C@H]2CC[C@@H](C1)N2c1c(-c2c(F)cc(F)cc2F)c(Cl)nc2ncnn12", "note": "[Compound 2]", "values": [{"measurement": "binding to MTs / unpolymerized tubulin heterodimers", "setting": "MTs [1]", "value": "binds exclusively to MTs and not to unpolymerized tubulin heterodimers"}]}
{"smiles": "CNCCCOc1cc(F)c(-c2c(Cl)nc3ncnn3c2N[C@@H](C)C(F)(F)F)c(F)c1", "note": "[Cevipabulin]", "values": [{"measurement": "competition for binding to MTs", "setting": "MTs [2]", "value": "competes with vincristine but not taxol or colchicine"}]}
{"smiles": "C[C@@H](Nc1c(-c2ccc(C#N)cc2F)c(Cl)nc2ncnn12)C(C)(C)C", "note": "[Compound 70, (R)-4-(5-Chloro-7-((3,3-dimethylbutan-2-yl)amino)-[1,2,4]triazolo[1,5-a]pyrimidin-6-yl)-3-fluorobenzonitrile]", "values": [{"measurement": "AcTub 10 μM (fold-change in acetylated α-tubulin)", "setting": "acetylated α-tubulin; 4 h incubation, 10 μM compound, relative to vehicle-treated cells", "value": "7.67 ± 0.70", "unit": "fold-change"}, {"measurement": "fold induction at 1 µM", "setting": "total α-tubulin; [6]", "value": 0.86}, {"measurement": "fold induction at 10 µM", "setting": "total α-tubulin; [7]", "value": 0.93}, {"measurement": "concentration at 1 h", "setting": "[3]; brain, dosed concurrently, individual animals 1-3, read-out: Brain Concentration", "value": 158, "unit": "ng/g"}, {"measurement": "concentration at 1 h", "setting": "[3]; brain, dosed concurrently, mean, n=3, read-out: Brain Concentration, Mean", "value": 183, "unit": "ng/g"}, {"measurement": "Kp at 1 h", "setting": "[3]; brain, individual animals 1-3, read-out: Brain/Plasma", "value": 0.9}, {"measurement": "Kp at 1 h", "setting": "[3]; brain, mean, n=3, read-out: Brain/Plasma, Mean", "value": 1.21}, {"measurement": "concentration at 1 h", "setting": "[3]; plasma, dosed concurrently, individual animals 1-3, read-out: Plasma Concentration", "value": 175, "unit": "ng/mL"}, {"measurement": "concentration at 1 h", "setting": "[3]; plasma, dosed concurrently, mean, n=3, read-out: Plasma Concentration, Mean", "value": 151, "unit": "ng/mL"}, {"measurement": "Brain Concentration", "setting": "[3]; [9]", "value": "186 ng/g and 206 ng/g"}, {"measurement": "Plasma Concentration", "setting": "[3]; [9]", "value": "133 ng/mL and 146 ng/mL"}, {"measurement": "Brain/Plasma", "setting": "[3]; individual animals 1-3, listed as 51990 (70)", "value": "1.40 and 1.41"}]}
{"smiles": "N#Cc1cc(F)c(-c2c(Cl)nc3ncnn3c2N2CCCCC2)c(F)c1", "note": "[Compound 73]", "values": [{"measurement": "fold induction at 1 µM", "setting": "acetylated α-tubulin; [10]", "value": 1}, {"measurement": "fold induction at 1 µM", "setting": "total α-tubulin; [6]", "value": 1}, {"measurement": "fold induction at 10 µM", "setting": "total α-tubulin; [7]", "value": 1.07}]}
{"smiles": "CC(C)[C@@H](C)Nc1c(-c2c(F)cc(C#CCCCO)cc2F)c(Cl)nc2ncnn12", "note": "[TAL-599, (R)-5-(4-(5-chloro-7-((3-methylbutan-2-yl)amino)-[1,2,4]triazolo[1,5-a]pyrimidin-6-yl)-3,5-difluorophenyl)pent-4-yn-1-ol]", "values": [{"measurement": "fold induction at 1 µM", "setting": "acetylated α-tubulin; [8]", "value": 2.6}, {"measurement": "fold induction at 1 µM", "setting": "total α-tubulin; [4]", "value": 1}]}
{"smiles": "CC(C)[C@@H](Nc1c(-c2c(F)cc(C#N)cc2F)c(Cl)nc2ncnn12)C(F)(F)F", "note": "[Compound 62, (R)-4-(5-chloro-7-((1,1,1-trifluoro-3-methylbutan-2-yl)amino)-[1,2,4]triazolo[1,5-a]pyrimidin-6-yl)-3,5-difluorobenzonitrile]", "values": [{"measurement": "fold induction at 1 µM", "setting": "acetylated α-tubulin; [10]", "value": "0.99 ± 0.06"}, {"measurement": "fold induction at 1 µM", "setting": "total α-tubulin; [6]", "value": 1.02}, {"measurement": "fold induction at 10 µM", "setting": "total α-tubulin; [7]", "value": 1.01}]}
